From patent US20250161409A1, “COMPOSITIONS FOR TREATING HYPERHIDROSIS” (PROSPERA BIOTECH, S.L., priority 2022, published 2025)
No end group written: not given here.

What was measured:
[1] = Attenuation of excessive sweating / hyperhidrosis (summary statements); format: in vivo
[2] = tested on: permeabilized chromaffin cells; experiment: Inhibition of calcium-induced release of catecholamines in digitonin-permeabilized chromaffin cells; format: cell-based; conditions: 1 mM peptide
Text: The neuronal-exocytosis (neurosecretion) inhibiting capabilities of the known neuronal exocytosis inhibitors became evident through a test that evaluates the strength of said compounds in inhibiting the release of catecholamines induced by calcium in chromaffin cells permeabilized with the detergent digitonin, in accordance with the method described by Gutiérrez et al. (FEBS Lett 1995, 372, 39-43, and J. Biol. Chem. 1997, 272, 2634-2639); as well as an in vitro reconstitution test of the fusion complex (SNARE).
Briefly, the chromaffin cell cultures are incubated with [3 H]-epinephrine and [3 H]-norepinephrine, are permeabilized with 20 μM digitonin, and stimulated with calcium (10 μM), in the presence of the compounds to be tested, and the amount of radioactivity released by the cells to the extracellular medium, which is a reflection of the exocytosis of [3 H]-epinephrine and [3 H]-norepinephrine, is measured.

[3] = tested on: fusion protein complex (SNARE); experiment: In vitro reconstitution (ELISA) of the fusion protein complex (SNARE); format: biochemical; conditions: peptide present during the assembly of the fusion complex
Experimental: An additional test of in vitro reconstitution was performed to determine the ability of the peptides to interfere with the formation and stability of the fusion complex (SNARE). The test consists of evaluating the in vitro reconstitution of the fusion protein complex with recombinant proteins produced in Escherichia coli. The reconstitution tests, based on ELISA (Enzyme-Linked Immuno Assay) methods, involve the immobilization of protein SNAP-25 in 96-well plates and the subsequent formation of the fusion protein complex by adding the proteins VAMP and syntaxin in the presence and/or absence of the peptides of the invention. The detection of the complex was performed using an antibody against protein syntaxin (anti-syntaxin), followed by an antibody which recognizes the anti-syntaxin antibody, covalently tagged with a peroxidase. The amount of fusion protein complex was tracked by adding 1,2-phenylenediamine dichloride, whose reaction with the peroxidase produces a product with an orangish-yellow color that absorbs 492 nm in an acid medium.

| Molecule | attenuation of excessive sweating ([1]; 0.1-0.01%) | inhibition of the release of catecholamines [2] | amount of fusion complex (SNARE) formed in presence of peptide [3] | attenuation of hyperhidrosis and excessive sweating ([1]; formulation containing 0.5-1.0% Argireline) |
| --- | --- | --- | --- | --- |
| CCCCCCCCC(=O)OCC(=O)NCc1cc(OC)c(O)cc1I [Calmpasin®, 2-((4-hydroxy-2-iodo-5-methoxybenzyl)amino)-2-oxoethyl nonanoate] | unable to attenuate excessive sweating |  |  |  |
| SEQ. ID NO. 2: peptide from the amino end of SNAP-25 (ELEEMQRRADQLA) |  | approximately 35% | significant decrease |  |
| Ac-Glu-Glu-Met-Gln-Arg-Arg (Ac-EEMQRR) [Argireline®, acetyl-hexapeptide commercialized under the tradename Argireline® by Lipotec, S. A] |  |  |  | modest effect |
| SEQ. ID NO. 1: peptide from the amino end of SNAP-25; 6 amino acid peptide whose acetylated derivative is Argireline (EEMQRR) |  | approximately 20% | significant decrease |  |
